Where two headings read alike, the source gives them in different places.
Columns and labels:
[1] = system: Kasumi-1 cells (c-KIT N822K); test: Cell viability assay (72 h); format: cell-based; details: Homo sapiens; Kasumi-1; 72 hours; read-out: Cell viability IC50
Protocol: (§1) Exponentially growing cell lines were plated into 96-well plates and incubated overnight at 37° C. […] Fluorescence was measured using a Wallac Victor microplate reader (PerkinElmer, Waltham, Mass.). […] Data are shown as mean (1 SD) from 3 separate experiments, each tested in triplicate.

MV4-11 cells (FLT3-ITD) = test: Cell viability assay (72 h); details: Homo sapiens, MV4-11, 72 h, read-out: Cell viability IC50 (nM)
Protocol: as §1

[2] = system: KG1 cells (FGFR1OP2-FGFR1); test: Cell viability assay (72 h); details: Homo sapiens, KG-1, 72 h, read-out: Cell viability IC50 (nM)
Protocol: as §1

[3] = system: EOL1 cells (FIP1L1-PDGFRα); test: Cell viability assay (72 h); details: Homo sapiens, EOL1, 72 h, read-out: Cell viability IC50 (nM)
Protocol: as §1

RS4;11 cells (wt) = test: Cell viability assay (72 h); details: Homo sapiens, RS4-11, 72 h, read-out: Cell viability IC50 (nM)
Protocol: as §1

[4] = system: KG1 cells (FGFR1-FGFR1OP2 fusion); test: Cell growth assay (72 h); format: cell-based; details: Homo sapiens
Description: (§2) Data are shown as mean (±SD) from 3 separate experiments tested in triplicate.

[5] = system: MGH-U3 bladder cancer cells, mutant FGFR3b (Y375C); test: Cell growth assay (72 h); format: cell-based
Description: as §2

[6] = system: SNU16 gastric cancer cells with amplified FGFR2; test: cells; details: Homo sapiens, SNU-16, read-out: Cell growth GI50 (nM)
Description: as §2

[7] = system: AN3CA endometrial cancer cells with mutant FGFR2 (N549K); test: cells; details: Homo sapiens, AN3-CA, read-out: Cell growth GI50 (nM)
Description: as §2

[8] = system: OPM2 multiple myeloma cells, mutant FGFR3 (K650E); test: cells; details: Homo sapiens, OPM-2, read-out: Cell growth GI50 (nM)
Description: as §2

[9] = system: MDA-MB-453 breast cancer cells, mutant FGFR4 (Y367C); test: cells; details: Homo sapiens, MDA-MB-453, read-out: Cell growth GI50 (nM)
Description: as §2

FGFR4 = FGFR4 (Homo sapiens, UniProt P22455); test: Kinase assay (RBC)
[10] = system: FGFR2 signaling in SNU16 gastric cells (Amplified); test: cells; details: Homo sapiens, SNU-16, read-out: Signaling IC50 (nM)
Description: Cells were lysed in either SDS buffer or Phospho-Safe (Novagen, Gibbstown, N.J.) and protein lysates were immunoprecipitated overnight and/or immunoblotted with the indicated antibodies. Protein expression was quantified using Quantity One software (BioRad, Hercules, Calif.).

FGFR2 = FGFR2 (Homo sapiens, UniProt P21802); test: Kinase assay (RBC); details: IC50 (nM), 10 μM ATP
[11] = system: FGFR2-mutant AN3CA tumor xenograft; test: AN3CA xenograft, compound 1 and ridaforolimus (Example 9); format: in vivo, nude mice
Protocol: AN3CA cells were implanted into the right flank of nude mice. […] Mean tumor volumes (±SE; tumor volume=L×W^2×0.5) were calculated for each treatment group.

[12] = system: AN3CA endometrial cancer cell line; test: Combination cell growth assay (Chou and Talalay); format: cell-based; details: AN3CA cells; cell growth; read-out: 1×EC50 concentration
[13] = system: MFE-296 endometrial cancer cell line; test: Combination cell growth assay (Chou and Talalay); format: cell-based; details: MFE-296 cells; cell growth; read-out: 1×EC50 concentration
[14] = system: mononuclear cells from a CML accelerated phase patient harboring BCR-ABL^T315I; test: Hematopoietic colony forming assay; details: methylcellulose, 14-18 days
[15] = KG-1, read-out: Cell growth GI50 (nM)
[16] = MGH-U3, read-out: Cell growth GI50

FGFR2, sequence (P21802 481-770 limits assumed): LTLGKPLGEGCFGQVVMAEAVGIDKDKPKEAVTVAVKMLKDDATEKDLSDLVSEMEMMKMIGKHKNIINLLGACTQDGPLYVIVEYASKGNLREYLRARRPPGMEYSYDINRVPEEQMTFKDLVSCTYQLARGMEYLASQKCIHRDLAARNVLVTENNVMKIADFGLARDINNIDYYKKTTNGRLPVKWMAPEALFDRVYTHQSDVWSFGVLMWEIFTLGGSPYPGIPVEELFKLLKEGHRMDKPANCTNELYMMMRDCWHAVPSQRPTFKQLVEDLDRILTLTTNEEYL
FGFR4, sequence (P22455 467-755 limits assumed): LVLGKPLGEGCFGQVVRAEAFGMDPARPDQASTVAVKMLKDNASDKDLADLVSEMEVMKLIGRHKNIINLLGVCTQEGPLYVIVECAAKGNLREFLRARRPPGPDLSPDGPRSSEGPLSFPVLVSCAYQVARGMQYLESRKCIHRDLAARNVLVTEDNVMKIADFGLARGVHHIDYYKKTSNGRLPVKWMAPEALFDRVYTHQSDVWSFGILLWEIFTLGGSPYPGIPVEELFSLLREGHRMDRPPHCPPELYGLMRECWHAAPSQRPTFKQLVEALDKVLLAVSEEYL

| Compound | GI50 [5, 16] [nM] | GI50 [6] [nM] | GI50 [7] [nM] | GI50 [8] [nM] | GI50 [9] [nM] | IC50 [10] [nM] | other results |
| --- | --- | --- | --- | --- | --- | --- | --- |
| CCN(CC)CCNC(=O)c1c(C)[nH]c(/C=C2\C(=O)Nc3ccc(F)cc32)c1C [Sunitinib, sunitinib] |  |  |  |  |  |  | IC50 [1]: 0.056 µM; IC50 (MV4-11 cells (FLT3-ITD)): 12 nM; IC50 [2]: > 100 nM; IC50 [3]: 3 nM; IC50 (RS4;11 cells (wt)): > 100 nM |
| CCN(CC)CCCCNc1ncc2cc(-c3cc(OC)cc(OC)c3)c(NC(=O)NC(C)(C)C)nc2n1 [PD 173074] | 850 | 20 | 187 | 83 | 1660 |  | GI50 [4, 15]: 10 nM; IC50 (FGFR4): 0.367 µM |
| CNC(=O)c1cc(Oc2ccc(NC(=O)Nc3ccc(Cl)c(C(F)(F)F)c3)cc2)ccn1 [Sorafenib, sorafenib] |  |  |  |  |  |  | IC50 [1]: 0.059 µM; IC50 (MV4-11 cells (FLT3-ITD)): 4 nM; IC50 [2]: > 100 nM; IC50 [3]: 0.5 nM; IC50 (RS4;11 cells (wt)): > 100 nM |
| COc1cc2c(Oc3ccc4[nH]c(C)cc4c3F)ncnc2cc1OCCCN1CCCC1 [AZD 2171] | 296 |  | 34 | 296 | > 1000 | 148 | GI50 ([4]; KG-1, KG1, read-out: Cell growth GI50): 23 nM |
| Cc1cc2c(F)c(Oc3ncnn4cc(OC[C@@H](C)O)c(C)c34)ccc2[nH]1 [BMS-540215] | > 1000 | > 1000 | > 1000 | 6200 | > 10000 | > 1000 | IC50 (FGFR2): 202 nM |
| CO[C@H]1C[C@@H]2CC[C@@H](C)[C@@](O)(O2)C(=O)C(=O)N2CCCC[C@H]2C(=O)O[C@H]([C@H](C)C[C@@H]2CC[C@@H](OP(C)(C)=O)[C@H](OC)C2)CC(=O)[C@H](C)/C=C(\C)[C@@H](O)[C@@H](OC)C(=O)[C@H](C)C[C@H](C)/C=C/C=C/C=C/1C [Ridaforolimus, reference compound] |  |  |  |  |  |  | TGI (%) ([11]; Ridaforolimus 0.3 mg/kg alone): 48%; TGI (%) ([11]; Ridaforolimus 1 mg/kg alone): 70%; EC50 [12]: 0.0004 µM; EC50 [13]: 0.001 µM |
| COC(=O)c1ccc2c(c1)NC(=O)/C2=C(\Nc1ccc(N(C)C(=O)CN2CCN(C)CC2)cc1)c1ccccc1 [BIBF 1120] |  | 496 | 684 | 297 | 1540 | 496 | GI50 [4, 15]: 221 nM; GI50 ([5]; read-out: Cell growth GI50 (nM), MGH-U3): > 1000 nM |
| Cc1cn(-c2cc(NC(=O)c3ccc(C)c(Nc4nccc(-c5cccnc5)n4)c3)cc(C(F)(F)F)c2)cn1 [nilotinib] |  |  |  |  |  |  | effect on colony formation [14]: neither nilotinib nor dasatinib showed any effect |
